Structures can show the parent of a compound that is named as a salt.
melting point | SMILES
126 to 131.6 °C | COCCN1C(=O)N(c2ccccc2Cl)Cc2cnc(NC(C)C)nc21 (as salt: hydrochloride) [Example 2b, 3-(2-chloro-phenyl)-1-(2-methoxy-ethyl)-7-isopropylamino-3,4-dihydropyrimido[4,5-d]pyrimidin-2(1H)-one]
188.8 to 191.4 °C | CCOC(=O)CN1C(=O)N(c2ccccc2Cl)Cc2cnc(NC(C)C)nc21 [Example 1d, 3-(2-chloro-phenyl)-1-ethoxycarbonylmethyl-7-isopropylamino-3,4-dihydropyrimido[4,5-d]pyrimidin-2(1H)-one]
172 to 188 °C | CC(C)Nc1ncc2c(n1)N(CC(=O)O)C(=O)N(c1ccccc1Cl)C2 [Example 1e, 3-(2-chloro-phenyl)-1-carboxymethyl-7-isopropylamino-3,4-dihydropyrimido[4,5-d]pyrimidin-2(1H)-one]

From patent publication US6642241B1, “Alkylamino-substituted bicyclic nitrogen heterocycles” (Syntex (U.S.A.) LLC, priority 1999, dated 2003)
